Results on five compounds are retold here after patent US11559544B2, “Combination of a MAPK/ERK pathway inhibitor and a glycosaminoglycan for the treatment of cancer” (CELL RECEPTOR AG, priority 2017, dated 2023).

Experiment [1] concerns NRAS mutant melanoma cell lines DO4 and MM415 resistant to trametinib. As to the kind of experiment: Growth of trametinib-resistant cancerous cells co-incubated daily with platelets (Example 3). It is filed as cell-based, Human. The note with it: in the presence of trametinib, serum-free, platelets 30 minutes each day. Here is the method: (§1) Three populations of cells are cultivated in the presence of the inhibitor under serum-free conditions.
(§2) For a first population of the cells PPS is added to the cell culture dishes, while for a second population, i.e. the control cells, no PPS is added.
(§3) For a third population of the cells DXS is added to the cell culture dishes.
(§4) Each day all cell populations are co-incubated with platelets for 30 minutes, which are subsequently washed away.
The third experiment is performed as described for Example 1 except that cells that have developed a resistance against the MEK inhibitor trametinib (GSK1120212) are used and cultivated in the presence of the MEK inhibitor trametinib.
As described in Vujic et al. 2014 in detail cancerous cells that have developed a resistance against the MEK inhibitor trametinib are generated by growing Human NRAS mutant melanoma cell lines DO4 and MM415 in the presence of increased concentrations of trametinib (GSK1120212) over a period of approximately 6 months.
For each of the cancerous cell lines that have developed a resistance against the MEK inhibitor trametinib the cultivation steps as in Example 1 are performed, except that the cells are cultivated in the presence of the MEK inhibitor trametinib.

For experiment [2] the following is noted: fraction of Heparin's activity; cited from earlier work.
The test system of experiment [3] is colorectal cancer cell lines COL0205 and HCT116 resistant to PD184352. As to the kind of experiment: Growth of CI-1040 (PD184352)-resistant cancerous cells co-incubated daily with platelets (Example 2). It counts as cell-based. Particulars: serum-free, platelets 30 minutes each day; for fate of cell population incubated with MEK inhibitor and PPS or DXS: in the presence of CI-1040 (PD184352). As to the method:
as §1, §2, §3, §4
The second experiment is performed as described for Example 1 except that cells are cultivated in the presence of the MEK inhibitor CI-1040 (PD184352).
As described in Little et al. 2011 in detail cancerous cells that have developed a resistance against the MEK inhibitor PD184352 are generated by growing colorectal cancer cell lines harboring mutations in BRAF (COL0205) or KRAS (HCT116) in the presence of increasing concentrations of […] without clonal selection until they grow apparently normally in 1 μm, 2 μM or […].
For each of the cancerous cells lines that have developed a resistance against the MEK inhibitor CI-1040 (PD184352) the cultivation steps as in Example 1 are performed, except that the cells are cultivated in the presence of the MEK inhibitor CI-1040 (PD184352).

Experiment [4] relates to melanoma cell line A375 resistant to dabrafenib. Description: Growth of dabrafenib-resistant cancerous cells co-incubated daily with platelets (Example 6). It is filed as cell-based, human. The note with it: serum-free, platelets 30 minutes each day; for fate of cell population incubated with Raf inhibitor and PPS or DXS: in the presence of dabrafenib. Here is the method: as §1, §2, §3, §4
The sixth experiment is performed as described for Example 1 except that cells that have developed a resistance against the Raf inhibitor dabrafenib are used and cultivated in the presence of the Raf inhibitor dabrafenib.
As described in Caparorali et al. 2011 in detail cancerous cells that have developed a resistance against the Raf inhibitor dabrafenib are generated by growing the human melanoma cell line A375 in gradually increasing concentrations of dabrafenib (from 1 nM up to 1.5 μM) over a period of 4 months and subsequently maintaining the dabrafenib-resistance cell lines in CM supplemented with 1.5 μM dabrafenib.
For each of the cancerous cells lines that have developed a resistance against the Raf inhibitor dabrafenib the cultivation steps as in Example 1 are performed, except that the cells are cultivated in the presence of the Raf inhibitor dabrafenib.

Experiment [5] deals with melanoma cell line SK-MEL-28 (BRAF V600E) resistant to vemurafenib. As to the kind of experiment: Growth of vemurafenib-resistant cancerous cells co-incubated daily with platelets (Example 4). It counts as cell-based. The note with it: in the presence of vemurafenib, serum-free, platelets 30 minutes each day. Here is the method: as §1, §2, §3, §4
The subject of experiment [6] is colorectal cancer cell lines COL0205, HT29, HCT116 and LoVo resistant to Selumetinib. Description: Growth of Selumetinib-resistant cancerous cells co-incubated daily with platelets (Example 1). It counts as cell-based. Particulars: in the presence of Selumetinib, serum-free, platelets 30 minutes each day. Here is the method:
The experiment is performed on cancerous cells that have developed a resistance against the MEK inhibitor Selumetinib. As described in Little et al. 2011 in detail cancerous cells that have developed a resistance against the MEK inhibitor Selumetinib are generated by growing colorectal cancer cell lines harboring mutations in BRAF (COL0205 and HT29 lines) or KRAS (HCT116 and LoVo lines) in the presence of increasing concentrations of AZD6244 (Selumetinib) without clonal selection until they grow apparently normally in 1 μm, 2 μM or 4 μM of the drug.
For each of the cancerous cells lines that have developed a resistance against the MEK inhibitor Selumetinib the following steps are performed:
as §1, §2, §3, §4
Control cells in the growth cycle express platelet receptors on their surface. Platelets adhere to the control cells and release growth factors from their alpha granules. The control cells will take up the factors and proceed through the cell cycle, even in the presence of the MEK inhibitor.

Experiment [7] relates to Hepatocellular carcinoma (HCC) Huh7 cells resistant to sorafenib. Description: Growth of sorafenib-resistant cancerous cells co-incubated daily with platelets (Example 5). It counts as cell-based, human. Particulars: serum-free, platelets 30 minutes each day; for fate of cell population incubated with Raf inhibitor and PPS or DXS: in the presence of sorafenib. As to the method: as §1, §2, §3, §4
The fifth experiment is performed as described for Example 1 except that cells that have developed a resistance against the Raf inhibitor sorafenib are used and cultivated in the presence of the Raf inhibitor sorafenib.
As described in Chen et al. 2011 in detail cancerous cells that have developed a resistance against the Raf inhibitor sorafenib are generated by growing the human Hepatocellular carcinoma (HCC) Huh7 in a long term exposure to sorafenib.
For each of the cancerous cells lines that have developed a resistance against the Raf inhibitor sorafenib the cultivation steps as in Example 1 are performed, except that the cells are cultivated in the presence of the Raf inhibitor sorafenib.

Experiment [8] relates to cancerous cells resistant against an RTK inhibitor. Description: Growth of RTK inhibitor-resistant cancerous cells co-incubated daily with platelets (Example 7). It is filed as cell-based. Particulars: in the presence of the RTK inhibitor, serum-free, platelets 30 minutes each day. As to the method:
as §1, §2, §3, §4
The seventh experiment is performed as described for Example 1, except that the cancerous cells are resistant against an RTK inhibitor and the three populations of cells are cultivated in the presence of the RTK inhibitor.

Take Pentosan polysulfate [PPS]: the “fate of cell population incubated with MEK inhibitor and PPS or DXS” value in experiment [1], in experiment [3] and in experiment [6] was “perish” throughout. The “anticoagulant activity relative to that of Heparin” value in experiment [2] is listed as 1/15. Besides, the “fate of cell population incubated with Raf inhibitor and PPS or DXS” value in experiment [4], in experiment [5] and in experiment [7] was “perish” in each case. Also, the “adherence of platelets to the cancerous cells” value in experiment [6] is given as “prevents the platelet from adhering to the cancerous cells”. Further, the “fate of cell population incubated with RTK inhibitor and PPS or DXS” value in experiment [8] is “perish”.
`CNC(=O)c1cc(Oc2ccc(NC(=O)Nc3ccc(Cl)c(C(F)(F)F)c3)cc2)ccn1` [sorafenib]: the “growth of control cells with Raf inhibitor alone (no PPS/DXS)” value in experiment [7] (sorafenib alone) is “continue to grow and divide”.
In the case of `CC(C)(C)c1nc(-c2cccc(NS(=O)(=O)c3c(F)cccc3F)c2F)c(-c2ccnc(N)n2)s1` [dabrafenib], the “growth of control cells with Raf inhibitor alone (no PPS/DXS)” value in experiment [4] (dabrafenib alone) is “continue to grow and divide”.
Turning to `O=C(NOCC1CC1)c1ccc(F)c(F)c1Nc1ccc(I)cc1Cl` [CI-1040], in experiment [3] (CI-1040 (PD184352) alone), the “growth of control cells with MEK inhibitor alone (no PPS/DXS)” value is “continue to grow and divide”.
As for Dextran sulfate [DXS], the “fate of cell population incubated with MEK inhibitor and PPS or DXS” value in experiment [1], in experiment [3] and in experiment [6] was “perish” each time. Also, the “fate of cell population incubated with Raf inhibitor and PPS or DXS” value in experiment [4], in experiment [5] and in experiment [7] was “perish” throughout. Besides, in experiment [6], the “adherence of platelets to the cancerous cells” value is on record as “prevents the platelet from adhering to the cancerous cells”. Also, the “fate of cell population incubated with RTK inhibitor and PPS or DXS” value in experiment [8] was “perish”.
